Here are results for four compounds from publication PMC6813218 (Frontiers in Molecular Neuroscience, 2019).

Molecules are shown by their SMILES.

Series [1] deals with CB1R. The arrangement: method as in Laprairie et al., 2019. As to conditions: ref Laprairie et al., 2019; cited from earlier work.
Series [2] concerns C57BL/6J mice. Put plainly: Tetrad: internal body temperature. The series is classed as in vivo, mouse. As to conditions: 0.5 and 1 h; for body temperature compared to vehicle: single agent i.p. (CP55940 0.1 mg/kg; indomethacin 2 mg/kg). The procedure:
(§1) Seven-week old, male, C57BL/6J mice (mean weight 25.2 ± 0.5 g) were purchased from The Jackson Laboratory (Bar Harbor, ME, United States). Animals were group housed (5 per cage) with ad libitum access to food, water, and environmental enrichment and maintained on a 12 h light/dark cycle. […] All protocols were in accordance with the guidelines detailed by the Canadian Council on Animal Care (CCAC; Ottawa ON: Vol. 1, 2nd Ed., 1993; Vol. 2, 1984), approved by the Carleton Animal Care Committee at Dalhousie University. In keeping with the ARRIVE guidelines, power analyses were conducted to determine the minimum number of animals required for the study and animals were purchased – rather than bred – to limit animal waste, and all assessments of animal behavior were made by individuals blinded to treatment group ([Kilkenny et al., 2010]).
Internal body temperature was measured via rectal thermometer immediately prior to injection and 0.5, 1, and 4 h following injection.

The test system of series [3] is C57BL/6J mice. Put plainly: Tetrad: locomotion, open field test. Type of series: in vivo, mouse. The procedure:
as §1
Locomotion was assessed in the open field test immediately prior to injection and 1 and 4 h following injection. Mice were placed in an open space 90 cm × 60 cm and total distance was recorded for 5 min.

The test system of series [4] is C57BL/6J mice. Put plainly: Tetrad: catalepsy, ring holding assay. Type of series: in vivo, mouse. As to conditions: for catalepsy: single agent i.p. (CP55940 0.1 mg/kg; indomethacin 2 mg/kg), 1 and 4 h. The procedure:
as §1
Catalepsy was assessed in the ring holding assay immediately prior to injection and 1 and 4 h following injection. The mice were placed such that their forepaws clasped a 5 mm ring positioned 5 cm above the surface of the testing space. The length of time the ring was held was recorded (s). The trial was ended if the mouse turned its head or body, or made three consecutive escape attempts.

The test system of series [5] is C57BL/6J mice. The series can be described thus: Tetrad: tail flick latency (anti-nociception). Type of series: in vivo, mouse. As to conditions: for tail flick latency compared to vehicle: single agent i.p. (CP55940 0.1 mg/kg; indomethacin 2 mg/kg), 0.5, 1 and 4 h. The procedure: as §1
Anti-nociception was determined by assessing tail flick latency immediately prior to injection and 0.5, 1, and 4 h following injection. Mice were restrained with their tails placed ∼1 cm into water held at 52°C and the time until the tail was removed was recorded as tail flick latency (s). Observations were ended at 10 s.
In general terms: Thermal pain tests record how soon the animal reacts.

The target of series [6] is T1, hCB1R (Homo sapiens, UniProt P21554). Type of series: cell-based. As to conditions: indomethacin alone. The procedure:
(§2) Cells were fixed for 10 min at room temperature with 4% paraformaldehyde and washed three times with 0.1 M PBS for 5 min each. Cells were incubated with blocking solution (PBS, 20% Odyssey blocking buffer, and 0.1% TritonX-100) for 1 h at room temperature. […] Cells were washed three times with PBS for 5 min each. Cells were incubated in IR^CW700dye or IR^CW800dye (1:500; Rockland Immunochemicals) and washed three times with PBS for 5 min each. Analyses were conducted using the Odyssey Imaging system and software (version 3.0; Li-Cor).

In series [7] the target is T2, hCB2R (Homo sapiens, UniProt P34972). Put plainly: cAMP luciferase reporter assay, HEK-CRE hCB2R-GFP2. The series is classed as cell-based. The arrangement: expressed in transfected cells; HEK-CRE reporter cells for the cAMP luciferase assay. As to conditions: indomethacin alone. The procedure:
(§3) HEK-CRE cells were transfected with CB1R-GFP^2 or CB2R-GFP^2. Forty-eight hours post-transfection cells were washed twice with cold PBS and suspended in BRET buffer. Cells were dispensed into 96-well plates (10,000 cells/well) and treated with 10 μM forskolin and ligands (PerkinElmer). Media was aspirated from cells and cells were lysed with passive lysis buffer for 20 min at room temperature (Promega, Oakville, ON, Canada).

For series [8], the target named is T1, hCB1R. Put plainly: [35S]GTPγS binding assay, CHO cell membranes. As to conditions: 1 μM indomethacin in the presence of 1 nM and 10 μM AEA. Type of series: biochemical. The procedure: (§4) Human CB1R and CB2R CHO cell membranes (25 μg protein) were preincubated for 30 min at 30°C with adenosine deaminase (0.5 IU/ml). […] Binding was initiated by the addition of [^35S]GTPγS. Non-specific binding was measured in the presence of 30 μM GTPγS. The reaction was terminated by rapid vacuum filtration (50 mM Tris–HCl; 50 mM Tris–Base; 0.1% BSA) using a 24-well sampling manifold (cell harvester; Brandel, Gaithersburg, MD, United States) and GF/B filters (Whatman, Maidstone, United Kingdom) that had been soaked in buffer (50 mM Tris–HCl; 50 mM Tris–Base; 0.1% BSA) for at least 24 h. Each reaction tube was washed six times with a 1.2-mL aliquot of ice-cold wash buffer. The filters were oven-dried for at least 60 min and then placed in 3 mL of scintillation fluid (Ultima Gold XR, PerkinElmer, Cambridge, United Kingdom). Radioactivity was quantified by liquid scintillation spectrometry.

In series [9] the test system is ICR mice. Also noted: method as in Wiley et al. (2006). As to conditions: indomethacin 10 or 30 mg/kg, AEA 30 mg/kg, ref Wiley et al. (2006); cited from earlier work.
Series [10] has as its target T1, hCB1R. Type of series: cell-based. As to conditions: indomethacin alone. The procedure: as §3
The source holds these as a separate data set.

In series [11] the target is T1, hCB1R. The series can be described thus: [3H]CP55940 radioligand binding, CHO cell membranes. As to conditions: 0.7 nM [3H]CP55940; indomethacin between 10 nM and 10 μM, bell-shaped, greatest at 10 and 100 nM. The procedure:
Binding was initiated by the addition of transfected human CB1R or CB2R CHO cell membranes (50 μg protein per well). All assays were performed at 37°C for 60 min before termination by the addition of ice-cold Tris binding buffer, followed by vacuum filtration using a 24-well sampling manifold (Brandel Cell Harvester; Brandel Inc., Gaithersburg, MD, United States) and Brandel GF/B filters that had been soaked in wash buffer at 4°C for at least 24 h. Each reaction well was washed six times with a 1.2 mL aliquot of Tris binding buffer. The filters were oven-dried for 60 min and then placed in 3 ml of scintillation fluid (Ultima Gold XR, PerkinElmer, Seer Green, Buckinghamshire, United Kingdom). Radioactivity was quantified by liquid scintillation spectrometry.

Series [12] deals with T1, hCB1R. The series is classed as cell-based. As to conditions: indomethacin alone. The procedure: (§5) Briefly, 48 h post-transfection cells were washed twice with cold PBS and suspended in BRET buffer [PBS supplemented with glucose (1 mg/mL), benzamidine (10 mg/mL), leupeptin (5 mg/mL), and a trypsin inhibitor (5 mg/mL)]. Cells were treated with compounds as indicated (PerkinElmer) and coelenterazine 400a substrate (50 μM; Biotium, Hayward, CA, United States) was added.
This is another data set of the same source.

For series [13], the system named is hCB1R. Put plainly: Bias analysis by operational model, ΔΔLogR (cAMP–βarrestin2), CHO cells. The series is classed as cell-based, human. As to conditions: reference agonist CP55940. The procedure: Concentration-response curves (CRC) were fit using non-linear regression with variable slope (four parameters) and used to calculate EC50, Emin, and Emax (GraphPad, Prism, v. 8.0). […] Statistical analyses were conducted by Student’s one

In series [14] the target is T2, hCB2R. The series can be described thus: PLCβ3 phosphorylation, in-cell western, HEK293A hCB2R-GFP2. The arrangement: expressed in transfected cells; host or cells: HEK293A cells; HEK-CRE reporter cells for the cAMP luciferase assay. The series is classed as cell-based. As to conditions: indomethacin alone. The procedure: as §2
For series [15], the target named is T1, hCB1R. The series is classed as binding. The procedure: The assay was terminated by rapid filtration onto GF/B filters pre-soaked in assay buffer using a Brandel cell harvester. The filters were washed six times with the ice-cold buffer before being dried in a heated cabinet. Filters were placed in vials to which 3 mL Ultima Gold scintillation fluid was added. The radioactivity in each vial was then counted for 3 min in a Tri-Carb liquid scintillation counter.

The target of series [16] is T2, hCB2R. The series can be described thus: [35S]GTPγS binding assay, CHO cell membranes. Type of series: biochemical. The arrangement: expressed in transfected cells; HEK-CRE reporter cells for the cAMP luciferase assay. As to conditions: data not shown. The procedure: as §4
For orientation: Binding of GTPγS marks nucleotide exchange on a G protein.

On the set-up of series [17]: method as in Remmel et al., 2004. As to conditions: ref Remmel et al., 2004; cited from earlier work.
Series [18] deals with T2, hCB2R. Put plainly: ERK1/2 phosphorylation, in-cell western, HEK293A hCB2R-GFP2. Type of series: cell-based. Also noted: expressed in transfected cells; host or cells: HEK293A cells; HEK-CRE reporter cells for the cAMP luciferase assay. As to conditions: indomethacin alone. The procedure: as §2
In series [19] the target is T2, hCB2R. The series can be described thus: βarrestin1 recruitment, BRET2, HEK293A hCB2R-GFP2. Type of series: cell-based. Also noted: expressed in transfected cells; host or cells: HEK293A cells, transient (Lipofectamine 2000). As to conditions: indomethacin alone. The procedure:
as §5

Series [20] has as its system CB1R. The arrangement: method as in Pamplona et al., 2012. As to conditions: PAM of ligand binding and cAMP inhibition at CB1R; ref Pamplona et al., 2012; cited from earlier work.

T1 sequence (P21554 whole entry): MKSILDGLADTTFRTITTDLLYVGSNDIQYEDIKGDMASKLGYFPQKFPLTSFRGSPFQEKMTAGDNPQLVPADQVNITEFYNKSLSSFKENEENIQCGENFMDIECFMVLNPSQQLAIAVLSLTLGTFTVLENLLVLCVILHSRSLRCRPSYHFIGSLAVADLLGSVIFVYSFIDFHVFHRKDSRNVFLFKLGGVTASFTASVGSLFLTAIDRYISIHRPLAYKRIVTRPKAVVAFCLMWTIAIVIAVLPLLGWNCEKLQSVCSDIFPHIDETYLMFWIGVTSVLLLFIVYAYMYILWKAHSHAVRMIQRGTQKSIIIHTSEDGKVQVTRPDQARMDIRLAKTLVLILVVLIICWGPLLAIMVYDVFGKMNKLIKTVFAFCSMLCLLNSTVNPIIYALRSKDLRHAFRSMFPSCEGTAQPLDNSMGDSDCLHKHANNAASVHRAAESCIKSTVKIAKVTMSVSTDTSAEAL
T2 sequence (P34972 whole entry): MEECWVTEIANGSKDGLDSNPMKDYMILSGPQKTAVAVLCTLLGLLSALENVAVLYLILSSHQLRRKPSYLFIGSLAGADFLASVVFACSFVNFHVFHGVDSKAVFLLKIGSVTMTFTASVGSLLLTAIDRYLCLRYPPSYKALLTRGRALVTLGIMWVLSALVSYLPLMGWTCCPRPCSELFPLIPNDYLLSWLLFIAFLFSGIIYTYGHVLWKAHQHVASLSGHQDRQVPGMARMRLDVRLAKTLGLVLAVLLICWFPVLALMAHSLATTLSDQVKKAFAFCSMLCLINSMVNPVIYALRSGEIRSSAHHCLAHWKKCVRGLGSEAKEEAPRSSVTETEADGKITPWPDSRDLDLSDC

For the compound `C=C(C)[C@@H]1CCC(C)=C[C@H]1c1c(O)cc(CCCCC)cc1O` [CBD, cannabidiol], the “concentrations that reduce CP55940 binding” value in series [1] is > 1 µM.
As for `CCCCCCC(C)(C)c1ccc([C@@H]2C[C@H](O)CC[C@H]2CCCO)c(O)c1` [CP55940, (-)-cis-3-[2-Hydroxy-4-(1,1-dimethylheptyl)phenyl]-trans-4-(3-hydroxypropyl)cyclohexanol], the “body temperature compared to vehicle” value in series [2] was “reduced”. The “locomotion (distance traveled in the open field) compared to vehicle” value in [3] (CP55940 0.1 mg/kg i.p., 1 and 4 h) is “reduced”. Moreover, the catalepsy result in series [4] is given as “increased”. Further, the “tail flick latency compared to vehicle” value in [5] is listed as “increased”.
`COc1ccc2c(c1)c(CC(=O)O)c(C)n2C(=O)c1ccc(Cl)cc1` [Indomethacin, indomethacin]: in series [6], the “hCB1R-dependent ERK1/2 phosphorylation” value is reported as “did not alter” and the “hCB1R-dependent PLCβ3 phosphorylation” value was “did not alter”. Further, in series [7], the “hCB2R-dependent cAMP inhibition” value is recorded as “did not alter”. In addition, the “[35S]GTPγS binding to hCB1R” value in series [8] is “enhanced”. For the same compound, the “AEA-dependent hypolocomotion, anti-nociception, hypothermia, and immobility” value in series [9] is listed as “enhanced”. For the same compound, in series [2] (CP55940 0.1 mg/kg + indomethacin 4 mg/kg i.p.), the “body temperature compared to CP55940 or indomethacin alone” value is “further reduced”. In addition, the “body temperature compared to vehicle” value in series [2] was “reduced”. Also, the “locomotion compared to CP55940 or indomethacin alone” value in series [3] (CP55940 0.1 mg/kg + indomethacin 4 mg/kg i.p., 4 h) is “further reduced”. Besides, the “hCB1R-dependent cAMP levels” value in [10] is “did not alter”. Besides, in series [11], the “[3H]CP55940 binding to hCB1R” value is recorded as “enhanced”. The “hCB1R-dependent βarrestin1 recruitment” value in series [12] is given as “did not alter”. Further, the “bias between cAMP inhibition and βarrestin2 recruitment (ΔΔLogR)” value in series [13] (indomethacin in the presence of AEA) is “selectively enhance inhibition of cAMP”. For the same compound, the “bias between cAMP inhibition and βarrestin2 recruitment (ΔΔLogR)” value in series [13] (indomethacin in the presence of CP55940) is recorded as “did not display bias”. Further, in series [14], the “hCB2R-dependent PLCβ3 phosphorylation” value is on record as “did not alter”. Moreover, in [15] (1 μM indomethacin), the “rate of dissociation of [3H]CP55940 compared to vehicle” value is “did not change”. Besides, the “t1/2 (min) (95% CI) of [3H]CP55940 dissociation” value in [15] (+1 μM indomethacin, 24°C, dissociation started with 1 μM unlabeled CP55940) is 4.67 (3.17–8.80) min. Further, in series [4] (2 and 4 mg/kg indomethacin with CP55940 0.1 mg/kg i.p., 1 h), the “catalepsy time compared to CP55940 alone” value was “significantly increased”. Also, in [4], the catalepsy entry is given as “not”. Also, the “[35S]GTPγS binding to hCB2R” value in series [16] is given as “did not effect”. In series [17], the t1/2 in mouse is reported as 51 min. Also, in series [5] (CP55940 0.1 mg/kg + indomethacin 4 mg/kg i.p., 1 h), the “tail flick latency compared to CP55940 or indomethacin alone” value was “increased”. Besides, the “tail flick latency compared to vehicle” value in series [5] was “increased”. For the same compound, the “hCB2R-dependent ERK1/2 phosphorylation” value in [18] was “did not alter”. For the same compound, in series [19], the “hCB2R-dependent βarrestin1 recruitment” value is “did not alter”.
On to `CCCCC[C@H](O)/C=C/C=C\C=C\C=C\[C@@H](O)[C@@H](O)CCCC(=O)O` [Lipoxin A4, lipoxin A4], for which the potency in vitro entry in series [20] is listed as “high micromolar”.
